This is an account of results in patent US20170216252A1, “ANTI-BACTERIAL PYRUVATE KINASE MODULATOR COMPOUNDS, COMPOSITIONS, USES AND METHODS” (SIMON FRASER UNIVERSITY, priority 2014, published 2017).

Molecules are shown by their SMILES. pIC50: −log10 of the molar value.

For the test, the target named is T1, MRSA PK (Staphylococcus aureus, UniProt Q6GG09).
T1 construct: His tag (pET-28a(+) vector) (N); made in house; host or cells: E. coli BL-21 (DE3)
Nature of the test: MRSA PK activity, continuous LDH-coupled assay. The class given is biochemical, S. aureus (MRSA strain Sanger 252). To be noted: for inhibition at 10 µM: read-out: % inhibition at the highest concentration tested (IC50). From the text: Genomic DNA of MRSA strain Sanger 252 extracted using DNeasy Tissue Kit™ (Qiagen™) was used as a template to generate the His-tagged MRSA PK. Human cDNA from MCF-7 breast cancer cell line (courtesy of Dr. J Wong, BC Cancer Research Center (Vancouver, Canada) was used as a template to generate the full-length human M2 PK enzyme. The following primer sets were used creating appropriate restriction sites (NdeI and XhoI sites underlined): For cloning of MRSA PK: M27F 5′-[…]-3′ and M27R 5′-[…]-3′, for cloning of human M2 PK isoform: hM2F 5′-[…]-3′ and hM2R 5′-[…]-3′. The resulting PCR fragments for each construct were cloned into the NdeI and XhoI unique sites of the bacterial expression vector pET-28a (+) (Novagen™). […] The sequence and the correct reading frame of all constructs were verified by sequencing. Human M1, R and L PK constructs in pET-28-a(+) vectors (courtesy of Dr. L. Cantley, Harvard Medical, School (Boston, USA)) were used to generate relevant recombinant His-tagged human PK isoforms.
MRSA and human constructs in pET-28a(+) were used to express relevant recombinant PK proteins in E. coli BL-21 (DE3). The proteins were expressed and purified using Ni-NTA agarose (Qiagen™) according to the manufacturer's protocol. Briefly, cells were grown to an absorbance of 0.4-0.5 at 600 nm in 2×YT medium, then induced with 0.1 mM IPTG for 3 h at 20° C. Cells were lysed by sonication on ice (3×10-s bursts with a 30-s recovery between bursts) in lysis buffer (0.2 mg/ml lysozyme, 50 mM Tris pH 7.5, 10 mM MgCl2, 200 mM NaCl, 100 mM KCl, 10% glycerol, 10 mM imidazole, 0.5% NP-40 and 1 mM DTT containing Complete™ protease inhibitor). Cell lysates were cleared by centrifugation (18,000×g in a Beckman™ JA-20 rotor) for 20 min at 4° C. and PK isoforms were purified by batch binding to Ni-NTA resin. The resins were then packed in columns (1×2 cm) and washed with 400 column volumes lysis buffer containing 30 mM imidazole. His-tagged PK isoforms were eluted with the same buffer containing 300 mM imidazole. The proteins were dialyzed overnight at 4° C. against 2000 volumes of ice-cold 30 mM Tris pH 7.5, 25 mM KCl, 5 mM MgCl2, 10% glycerol and 1 mM DTT to remove imidazole. All purification steps were done at 4° C.; enzymes were flash-frozen and stored at −70° C. […] Purity and physical integrity of proteins were assessed using SDS-polyacrylamide gel electrophoresis (SDS-PAGE) followed by coomassie blue staining. Protein concentration was estimated by Bradford assay (Bio-Rad Protein Assay™) using bovine serum albumin as a standard.
Candidate MRSA PK inhibitors were assayed for their ability to inhibit enzymatic activities of MRSA and human PKs. PK activity was determined using a continuous assay coupled to lactate dehydrogenase (LDH) in which the change in absorbance at 340 nm owing to oxidation of NADH was measured using a Benchmark Plus™ microplate spectrophotometer (Bio-Rad Laboratories, Hercules, Calif.). […] Reactions were initiated by the addition of 15 nM of one of the PK enzymes. PK activity proportional to the rate of change at 340 nm was expressed as specific activity (μmol/min/mg), which is defined as the amount of PK that catalyzes the formation of one micromole of either product per minute. Inhibitors were dissolved in DMSO with the final concentration of the solvent never exceeding 1% of the assay volume. IC50 values were calculated by curve fitting on a four-parameter dose-response model with variable slope using Graphpad Prism 5.0™ (GraphPad™ Software Inc., La Jolla, Calif.). […] Reactions were performed at 30° C. for up to 5 min. All values determined represent at least two measurements, in triplicate (Tables 1-6) or duplicate unless mentioned otherwise.

For orientation: pIC50 means the IC50 on a negative log10 scale, so that one unit is a factor of ten.

T1 sequence (Q6GG09 whole entry): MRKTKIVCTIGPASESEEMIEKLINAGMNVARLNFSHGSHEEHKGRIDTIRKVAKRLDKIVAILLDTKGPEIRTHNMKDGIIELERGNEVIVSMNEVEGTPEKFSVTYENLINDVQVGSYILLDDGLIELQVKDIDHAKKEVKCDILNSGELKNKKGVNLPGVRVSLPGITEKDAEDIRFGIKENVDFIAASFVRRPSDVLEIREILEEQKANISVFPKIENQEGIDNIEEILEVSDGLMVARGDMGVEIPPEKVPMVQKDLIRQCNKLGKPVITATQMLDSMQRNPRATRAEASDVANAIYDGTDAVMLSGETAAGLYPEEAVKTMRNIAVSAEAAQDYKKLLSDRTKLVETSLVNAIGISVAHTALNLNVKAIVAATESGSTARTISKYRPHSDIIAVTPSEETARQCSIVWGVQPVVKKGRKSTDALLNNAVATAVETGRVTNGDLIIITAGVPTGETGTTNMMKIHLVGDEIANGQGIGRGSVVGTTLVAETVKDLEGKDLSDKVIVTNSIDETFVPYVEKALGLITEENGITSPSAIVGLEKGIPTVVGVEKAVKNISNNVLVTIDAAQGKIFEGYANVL

With `Brc1ccc2[nH]c(-c3cc4ccccc4[nH]3)cc2c1` [Compound 10h, 5-Bromo-1H,1′H-2,2′-biindole], the inhibition at 10 µM is 36%.

On to `Cn1c(C#Cc2cc3ccc(Br)cc3n2C)cc2ccc(Br)cc21` [Compound 26b, 1,2-bis(6-bromo-1-methyl-1H-indol-2-yl)ethyne], for which the inhibition at 10 µM was determined as 27%.

Consider `Brc1ccc2cc(CCc3ccccc3)[nH]c2c1` [Compound 37a, 6-bromo-2-phenethyl-1H-indole], for which the inhibition at 4 µM (read-out: % inhibition (IC50)) amounted to 56%.

Turning to `Brc1ccc(CCc2cc3ccc(Br)cc3[nH]2)cc1` [Compound 37b, 6-bromo-2-(4-bromophenethyl)-1H-indole], the pIC50 is 6.73.

Compound `[N-]=[N+]=Nc1ccc2cc(-c3cc4ccc(Br)cc4[nH]3)[nH]c2c1` [Compound 88, 6-azido-6′-bromo-1H,1′H-2,2′-biindole] showed a pIC50 of 7.65.

Take `FC(F)(F)C1(c2ccc(-c3cc4ccc(Br)cc4[nH]3)cc2)NN1` [Compound 89, 6-Bromo-2-(4-(3-(trifluoromethyl)diaziridin-3-yl)phenyl)-1H-indole]: the inhibition at 10 µM was found to be 84%.

For `COC(=O)c1c(-c2cc3ccc(Br)cc3[nH]2)[nH]c2ccccc12` [Compound 90, methyl 6′-bromo-1H,1′H-[2,2′-biindole]-3-carboxylate], the pIC50 was 8.62.

For the compound `FC(F)(F)C1(c2ccc(-c3[nH]c4cc(Br)ccc4c3Cl)cc2)N=N1` [Compound 92, 6-bromo-3-chloro-2-(4-(3-(trifluoromethyl)-3H-diazirin-3-yl)phenyl)-1H-indole], the pIC50 is 6.96.

With `[N-]=[N+]=Nc1ccc(-c2cc3ccc(Br)cc3[nH]2)cc1` [Compound 93, 2-(4-azidophenyl)-6-bromo-1H-indole], the pIC50 was 7.39. Compared with the last compound, the pIC50 is 0.43 log units higher.

For `FC(F)(F)C1(c2ccc(-c3cc4ccc(Br)cc4[nH]3)cc2)N=N1` [Compound 94, 6-bromo-2-(4-(3-(trifluoromethyl)-3H-diazirin-3-yl)phenyl)-1H-indole], the pIC50 was 7.11. This pIC50 is 0.28 log units lower than that of the compound before.

Take `COc1ccc(/C=C/c2cc3ccc(Br)cc3[nH]2)cn1` [Compound 111, (E)-6-Bromo-2-(2-(6-methoxypyridin-3-yl)vinyl)-1H-indole]: the pIC50 was less than 6.00.

`Cc1nc(/C=C/c2cc3ccc(Br)cc3[nH]2)co1` [Compound 112, (E)-4-(2-(6-Bromo-1H-indol-2-yl)vinyl)-2-methyloxazole] showed a pIC50 of less than 4.00.

`Cc1csc(/C=C/c2cc3ccc(Br)cc3[nH]2)n1` [Compound 113, (E)-2-(2-(6-Bromo-1H-indol-2-yl)vinyl)-4-methylthiazole] gave a pIC50 of less than 6.00.

Consider `Cc1ccc(/C=C/c2cc3ccc(Br)cc3[nH]2)o1` [Compound 114, (E)-6-Bromo-2-(2-(5-methylfuran-2-yl)vinyl)-1H-indole], for which the pIC50 was less than 6.00.

In turn, `Cc1ncc(/C=C/c2cc3ccc(Br)cc3[nH]2)s1` [Compound 115, (E)-5-(2-(6-Bromo-1H-indol-2-yl)vinyl)-2-methylthiazole] gave a pIC50 of less than 6.00.

On to `Cc1ccc(/C=C/c2cc3ccc(Br)cc3[nH]2)s1` [Compound 116, (E)-6-Bromo-2-(2-(5-methylthiophen-2-yl)vinyl)-1H-indole], for which the pIC50 was less than 6.00.

Turning to `Cc1csc(/C=C/c2cc3ccc(Br)cc3[nH]2)c1` [Compound 117, (E)-6-Bromo-2-(2-(4-methylthiophen-2-yl)vinyl)-1H-indole], the pIC50 is less than 6.00.

Turning to `CC(=O)c1c(/C=C/c2ccc(Cl)cc2)[nH]c2cc(Br)ccc12` [Compound 122, (E)-1-(6-Bromo-2-(4-chlorostyryl)-1H-indol-3-yl)ethanone], the pIC50 is 6.00 to 7.00.

For the compound `Brc1ccc2cc(C#Cc3ccccn3)[nH]c2c1` [Compound 140, 6-Bromo-2-(pyridin-2-ylethynyl)-1H-indole], the pIC50 was less than 6.00.

Take `COC(=O)c1c(C#Cc2ncc(Cl)cn2)[nH]c2cc(Br)ccc12` [Compound 143, Methyl 6-bromo-2-((5-chloropyrimidin-2-yl)ethynyl)-1H-indole-3-carboxylate]: the pIC50 is greater than 7.30.
